According to patent US12371454B2, “Cyclic peptide compound having Kras inhibitory action” (priority 2019, dated 2025):
Starred links: 1 amine or outer side, 2 acyl side, 3 side chain; linkers in the order of their positions; H or OH if unused. Positions of bridges follow the written chain, without caps; N, C: chain ends. Non-standard residues stand in square brackets, D forms with d. Residues, ends and D or L forms follow the SMILES beside them. *: point of attachment. hPhe(3,5-F2-4-CF3) = N[C@@H](CCc1cc(F)c(C(F)(F)F)c(F)c1)C(=O)O; hPhe(3-Cl-4-CF3) = N[C@@H](CCc1ccc(C(F)(F)F)c(Cl)c1)C(=O)O; NMeAbu(4,4,4-F3) = CN[C@@H](CC(F)(F)F)C(=O)O; NMePhe(4-Cl) = CN[C@@H](Cc1ccc(Cl)cc1)C(=O)O; NMePhe(4-Me) = CN[C@@H](Cc1ccc(C)cc1)C(=O)O; X54 = O=C([C@H](Cc1cccc(Br)c1F)N[*:1])[*:2]; X31 = O=C([C@H](Cc1ccc(Cl)s1)N[*:1])[*:2]; NMeGly(cPent) = CN[C@H](C(=O)O)C1CCCC1; Phe(3-I) = N[C@@H](Cc1cccc(I)c1)C(=O)O; Phe(4-F) = N[C@@H](Cc1ccc(F)cc1)C(=O)O; Pro(4,4-F2) = O=C(O)[C@@H]1CC(F)(F)CN1; NMeY = CN[C@@H](Cc1ccc(O)cc1)C(=O)O; NMeCha = CN[C@@H](CC1CCCCC1)C(=O)O; NMeChg = CN[C@H](C(=O)O)C1CCCCC1; NMeF = CN[C@@H](Cc1ccccc1)C(=O)O; NMeD = CN[C@@H](CC(=O)O)C(=O)O; NMeL = CN[C@@H](CC(C)C)C(=O)O; NMeNva = CCC[C@H](NC)C(=O)O; NMeV = CN[C@H](C(=O)O)C(C)C; d(β3hA) = C[C@@H](N)CC(=O)O; NMeAbu = CC[C@H](NC)C(=O)O; NMeA = CN[C@@H](C)C(=O)O; NMeAib = CNC(C)(C)C(=O)O; Nle = CCCC[C@H](N)C(=O)O; Piperidide = C1CCN(*)CC1; Pra = C#CC[C@H](N)C(=O)O; Pyrrolidide = C1CCN(*)C1; Ac5c = NC1(C(=O)O)CCCC1; Aze = O=C(O)[C@@H]1CCN1; Sar = CNCC(=O)O

Target: T1, Kras and SOS1 (biotin-tagged human Kras loaded with GDP, His-tagged human SOS1) (Homo sapiens, UniProt P01116, G12D)
T1 construct: made in house; host or cells: E. coli (stated for Kras only)
Assay: Protein-protein interaction inhibition between Kras and SOS1 (KrasGl2D-SOS PPI) using AlphaScreen
Format: binding
Conditions: AlphaScreen; biotin-tagged human Kras loaded with GDP, His-tagged human SOS1; read-out: KRAS G12D-SOS PPI IC50
Method in brief: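 Energy transfer from nickel-chelate donor beads bound to His-SOS1 to streptavidin acceptor beads bound to biotin-Kras, expressed in E. coli and loaded with GDP after purification, was monitored. Donors were excited at 680 nm; singlet oxygen reaching acceptors gave emission read at 520-620 nm.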

T1 sequence (P01116 1-188 isoform P01116-2 G12D): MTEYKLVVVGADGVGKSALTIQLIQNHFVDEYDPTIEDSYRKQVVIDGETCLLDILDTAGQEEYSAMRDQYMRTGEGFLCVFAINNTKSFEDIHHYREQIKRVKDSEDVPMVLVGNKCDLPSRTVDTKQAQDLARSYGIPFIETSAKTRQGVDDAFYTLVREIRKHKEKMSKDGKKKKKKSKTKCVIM

`CCCC[C@@H]1NC(=O)[C@H](Cc2cccc(Br)c2F)NC(=O)CN(C)C(=O)[C@H](Cc2ccc(OC)cc2)N(C)C(=O)[C@@H]2CCN2C(=O)[C@H](C)N(C)C(=O)[C@H]([C@@H](C)CC)NC(=O)[C@H](CC)N(C)C(=O)C[C@@H](C(=O)N2CCCCC2)N(C)C(=O)[C@H](CC(C)C)NC(=O)C(C)(C)N(C)C1=O` [Compound 1304] ([NMeAbu]I[NMeA][Aze][NMeY](Me)[Sar][X54][Nle][NMeAib]L[NMeD]-Piperidide; lactam N-11) and `C#CC[C@@H]1NC(=O)[C@H](Cc2cccc(I)c2)NC(=O)CN(C)C(=O)[C@H](Cc2ccccc2)N(C)C(=O)[C@@H]2CCN2C(=O)[C@H](C)N(C)C(=O)[C@H]([C@@H](C)CC)NC(=O)[C@H](CC(C)C)N(C)C(=O)C[C@@H](C(=O)N2CCCCC2)N(C)C(=O)[C@H](CC(C)C)NC(=O)C(C)(C)N(C)C1=O` [Compound 1313] ([NMeL]I[NMeA][Aze][NMeF][Sar][Phe(3-I)][Pra][NMeAib]L[NMeD]-Piperidide; lactam N-11) are within 1.5-fold of each other in IC50: 85 nM for the first, 65 nM for the second.

Going from `CCCC[C@@H]1NC(=O)[C@H](Cc2ccc(F)cc2)NC(=O)CN(C)C(=O)[C@H](Cc2ccc(Cl)cc2)N(C)C(=O)CN(C)C(=O)CN(C)C(=O)[C@H]([C@@H](C)CC)NC(=O)[C@H](CC(C)C)N(C)C(=O)C[C@@H](C(=O)N2CCCCC2)N(C)C(=O)[C@H](CC(C)C)NC(=O)C(C)(C)N(C)C1=O` [Compound 1305] ([NMeL]I[Sar][Sar][NMePhe(4-Cl)][Sar][Phe(4-F)][Nle][NMeAib]L[NMeD]-Piperidide; lactam N-11) to `CCCC[C@@H]1NC(=O)[C@H](Cc2ccc(Cl)s2)NC(=O)CN(C)C(=O)[C@H](Cc2ccc(Cl)cc2)N(C)C(=O)CN(C)C(=O)CN(C)C(=O)[C@H]([C@@H](C)CC)NC(=O)[C@H](CC(C)C)N(C)C(=O)C[C@@H](C(=O)N2CCCCC2)N(C)C(=O)[C@H](CC(C)C)NC(=O)C(C)(C)N(C)C1=O` [Compound 1318] ([NMeL]I[Sar][Sar][NMePhe(4-Cl)][Sar][X31][Nle][NMeAib]L[NMeD]-Piperidide; lactam N-11), the IC50 falls from 240 nM to 78 nM (3.1-fold). The second is the more potent here.

`CCC[C@H]1C(=O)N[C@@H]([C@@H](C)CC)C(=O)N(C)CC(=O)N(C)CC(=O)N(C)[C@@H](Cc2ccc(C)cc2)C(=O)N(C)CC(=O)N[C@@H](CCc2cc(F)c(C(F)(F)F)c(F)c2)C(=O)N2CC(F)(F)C[C@H]2C(=O)NC2(CCCC2)C(=O)N(C)[C@@H](C2CCCCC2)C(=O)N(C)[C@H](C(=O)N2CCCC2)CC(=O)N1C` [Compound 1306] ([NMeNva]I[Sar][Sar][NMePhe(4-Me)][Sar][hPhe(3,5-F2-4-CF3)][Pro(4,4-F2)][Ac5c][NMeChg][NMeD]-Pyrrolidide; lactam N-11) and `CC[C@H](C)[C@@H]1NC(=O)[C@H](CC(F)(F)F)N(C)C(=O)C[C@@H](C(=O)N2CCCC2)N(C)C(=O)[C@H](C2CCCCC2)N(C)C(=O)C2(CCCC2)NC(=O)[C@@H]2CC(F)(F)CN2C(=O)[C@H](CCc2cc(F)c(C(F)(F)F)c(F)c2)NC(=O)CN(C)C(=O)[C@H](Cc2ccc(C)cc2)N(C)C(=O)CN(C)C(=O)CN(C)C1=O` [Compound 1317] ([NMeAbu(4,4,4-F3)]I[Sar][Sar][NMePhe(4-Me)][Sar][hPhe(3,5-F2-4-CF3)][Pro(4,4-F2)][Ac5c][NMeChg][NMeD]-Pyrrolidide; lactam N-11) are within 1.5-fold of each other in IC50: 0.5 nM for the first, 0.57 nM for the second.

Compared with `CC[C@H](C)[C@@H]1NC(=O)[C@H](CC(C)C)N(C)C(=O)C[C@@H](C)NC(=O)[C@H](C2CCCC2)N(C)C(=O)C2(CCCC2)NC(=O)[C@H](C)NC(=O)[C@H](CCc2ccc(C(F)(F)F)c(Cl)c2)NC(=O)CN(C)C(=O)[C@H](Cc2ccc(C)cc2)N(C)C(=O)[C@@H]2CCN2C(=O)[C@H](C)N(C)C1=O` [Compound 1307] (cyclo(A[Ac5c][NMeGly(cPent)][d(β3hA)][NMeL]I[NMeA][Aze][NMePhe(4-Me)][Sar][hPhe(3-Cl-4-CF3)])), `CC[C@H](C)[C@@H]1NC(=O)[C@H](CC(C)C)N(C)C(=O)C[C@@H](C(=O)N2CCCCC2)N(C)C(=O)[C@H](C(C)C)N(C)C(=O)C2(CCCC2)NC(=O)[C@@H](C)NC(=O)[C@H](CCc2ccc(C(F)(F)F)c(Cl)c2)NC(=O)CN(C)C(=O)[C@H](CC2CCCCC2)N(C)C(=O)[C@@H]2CCN2C(=O)[C@H](C)N(C)C1=O` [Compound 1314] ([NMeL]I[NMeA][Aze][NMeCha][Sar][hPhe(3-Cl-4-CF3)][dA][Ac5c][NMeV][NMeD]-Piperidide; lactam N-11) is 33-fold higher in IC50: 2.7 nM for the first, 90 nM for the second.

With `CC[C@H](C)[C@@H]1NC(=O)[C@H](CC(C)C)N(C)C(=O)C[C@@H](C(=O)N2CCCCC2)N(C)C(=O)[C@H](C(C)C)N(C)C(=O)C2(CCCC2)NC(=O)[C@H](C)NC(=O)[C@H](CCc2ccc(C(F)(F)F)c(Cl)c2)NC(=O)CN(C)C(=O)[C@H](CC2CCCCC2)N(C)C(=O)[C@@H]2CCN2C(=O)[C@H](C)N(C)C1=O` [Compound 1316] ([NMeL]I[NMeA][Aze][NMeCha][Sar][hPhe(3-Cl-4-CF3)]A[Ac5c][NMeV][NMeD]-Piperidide; lactam N-11) the IC50 was 3.2 nM.
